Assay results from patent publication US9309308B2, “Monoclonal antibodies for tumor treatment” (CURETECH LTD., priority 2008, dated 2016).
“And” between values parts separate entries of the source, which are not always exact repeats. Equal values may be shown once. Read-outs that look alike come from different tables or passages of the source.

Tests used:
murine lymphocytes = test: In vitro functional assay based on viability of murine lymphocytes; assay type: cell-based
Experimental: FIG. 1C. The effect of 5FU or vehicle control in the functional assay presented as viable cells/ml. The incubation time with 5FU or vehicle control (72 hours) is indicated on the x-axis.

topoisomerase I = biological target: T1, topoisomerase I (Homo sapiens, UniProt P11387); conditions: cited from earlier work
T1 sequence (P11387 1-765): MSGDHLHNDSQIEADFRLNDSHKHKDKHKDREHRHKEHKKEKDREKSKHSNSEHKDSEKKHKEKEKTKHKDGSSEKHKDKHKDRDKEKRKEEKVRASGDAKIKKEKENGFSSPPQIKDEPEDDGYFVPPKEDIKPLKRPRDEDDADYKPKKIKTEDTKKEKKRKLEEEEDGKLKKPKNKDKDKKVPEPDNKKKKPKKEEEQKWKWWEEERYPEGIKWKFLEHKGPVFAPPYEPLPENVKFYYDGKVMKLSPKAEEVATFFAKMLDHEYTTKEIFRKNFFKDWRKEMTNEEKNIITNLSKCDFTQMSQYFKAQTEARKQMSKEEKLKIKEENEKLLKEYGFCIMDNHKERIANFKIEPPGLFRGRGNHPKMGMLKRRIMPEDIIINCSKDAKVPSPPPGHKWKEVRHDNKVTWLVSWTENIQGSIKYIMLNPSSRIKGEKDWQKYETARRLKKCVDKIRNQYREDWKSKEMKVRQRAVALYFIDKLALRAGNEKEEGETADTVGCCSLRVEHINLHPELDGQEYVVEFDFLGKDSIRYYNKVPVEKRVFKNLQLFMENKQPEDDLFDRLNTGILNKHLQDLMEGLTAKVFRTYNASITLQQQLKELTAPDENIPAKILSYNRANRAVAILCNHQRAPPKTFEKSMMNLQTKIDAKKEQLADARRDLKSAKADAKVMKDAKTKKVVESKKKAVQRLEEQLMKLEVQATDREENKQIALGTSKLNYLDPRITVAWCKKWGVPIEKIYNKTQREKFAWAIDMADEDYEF

[1] = human, in vivo
[2] = Phase I clinical trial of CT-011, pharmacokinetics; conditions: Table 2 patients
[3] = system: advanced hematological malignancies
[4] = murine lymphocytes, agent combined with hBAT-1
[5] = AML patient receiving CT-011 at 0.2 and 3 mg/kg
[6] = Pt. 003/016, AML, 0.2/3.0 mg/kg

O=c1[nH]cc(F)c(=O)[nH]1 [5FU, 5-fluorouracil]
effect of chemotherapeutic agent on the activity of hBAT-1 (murine lymphocytes; [4]): do not adversely affect the activity of hBAT-1
cell survival with chemotherapeutic agent on its own (murine lymphocytes; without hBAT-1, FIG. 1C): did not enhance cell survival

CCc1c2c(nc3ccc(O)cc13)-c1cc3c(c(=O)n1C2)COC(=O)[C@]3(O)CC [SN-38, 7-ethyl-10-hydroxy-camptothecin]
potency relative to parent compound irinotecan (topoisomerase I): One thousand-fold more potent
cell survival when given in combination with hBAT-1 (murine lymphocytes): do not enhance cell survival

N.N.[Cl][Pt][Cl] [cisplatin, cis-diamminedichloridoplatinum II]
effect of chemotherapeutic agent on the activity of hBAT-1 (murine lymphocytes; [4]): do not adversely affect the activity of hBAT-1

O=P1(N(CCCl)CCCl)NCCCO1 (stereo not drawn) [cyclophosphamide]
cell survival when given in combination with hBAT-1 (murine lymphocytes; murine lymphocyte culture): do not enhance cell survival

Nc1ccn([C@@H]2O[C@H](CO)[C@@H](O)[C@@H]2O)c(=O)n1 [cytarabine]
effect of chemotherapeutic agent on the activity of hBAT-1 (murine lymphocytes; [4]): do not adversely affect the activity of hBAT-1

O=C1[O][Pt]2([NH][C@@H]3CCCC[C@H]3[NH]2)[O]C1=O [oxaliplatin]
effect of chemotherapeutic agent on the activity of hBAT-1 (murine lymphocytes): do not adversely affect the activity of hBAT-1

CC(=O)O[C@H]1C(=O)[C@@]2(C)[C@H]([C@H](OC(=O)c3ccccc3)[C@]3(O)C[C@H](OC(=O)[C@H](O)[C@@H](NC(=O)c4ccccc4)c4ccccc4)C(C)=C1C3(C)C)[C@]1(OC(C)=O)CO[C@@H]1C[C@@H]2O [paclitaxel]
effect of chemotherapeutic agent on the activity of hBAT-1 (murine lymphocytes; [4]): do not adversely affect the activity of hBAT-1

hBAT-1: humanized monoclonal antibody with CDRs of murine mBAT-1 and human framework regions
highest half life [1]: 17.1 days
median t1/2 of the 6 patients with apparent clinical response versus the rest [2]: somewhat higher than that of the rest of the patients
patients reporting adverse events (AE) ([3]; 11 of 18): 61%
changes in disease parameters ([3]; 21 days, 2 CLL, 4 NHL and one Multiple Myeloma patient): no changes in disease parameters
clinical response [3, 5]: minimal response
time to progression after receiving CT-011 [3, 5]: 61 weeks
change in average percentage of blasts in the peripheral blood ([3]; AML patients, 21 days, excluding one patient): no change
duration of stable disease ([3]; CLL patient, 0.6 mg/kg): 36 weeks
duration of stable disease ([3]; CLL patient, 1.5 mg/kg): over 78 weeks
duration of stable disease ([3]; HD patient, 0.6 mg/kg): 35 weeks
duration of stable disease ([3]; MM patient, 6.0 mg/kg): over 60 weeks
Overall Survival (Weeks) [3, 6]: 61 Weeks
platelet transfusion-independent period [3, 6]: for 9 months
reduction in peripheral blasts ([3]; Pt. 003/016, AML, on first dose (0.2 mg/kg)): (50% to 5%) on first dose
Overall Survival (Weeks) ([3]; Pt. 005, CLL, 0.6 mg/kg): 36 Weeks
Overall Survival (Weeks) ([3]; Pt. 006, HD, 0.6 mg/kg): 35 Weeks
Overall Survival (Weeks) ([3]; Pt. 008, CLL, 1.5 mg/kg): >78 Weeks
duration stable ([3]; Pt. 008, CLL, 1.5 mg/kg): Stable for >17 months
Overall Survival (Weeks) ([3]; Pt. 015, NHL, 3.0 mg/kg): >68 Weeks
tumor masses by CT scan ([3]; Pt. 015, follicular lymphoma, 10 months post CT-011 treatment): complete elimination of tumor masses
Overall Survival (Weeks) ([3]; Pt. 017, MM, 6.0 mg/kg): >60 Weeks
duration stable ([3]; Pt. 017, MM, 6.0 mg/kg): Stable for >13 months
cumulative survival of all patients ([3]; at 21 days, n=18): 76%
most frequent AE ([3]; concluded not associated with CT-011 treatment): diarrhea
patients with apparent response to treatment ([3]; follow-up): 6 patients
mean survival time ([3]; follow-up beyond 21 days, all patients, listed as CT-011): 25±27 weeks and 25 weeks
difference in mean survival time across the dose groups ([3]; human, in vivo): No difference
serious adverse events ([3]; number, all resulted in death, in AML patients): Four
sustained remission ([3]; patient #015, following CT-011 treatment): 68 weeks
clinical response ([3]; patient #015, stage III follicular lymphoma, 3.0 mg/kg): complete remission
dose-limiting toxicity (DLT) ([3]; single dose 0.2 to 6 mg/kg): No DLT was reached
maximum tolerated dose (MTD) ([3]; single dose 0.2 to 6 mg/kg): No single dose MTD was found
safety and tolerability ([3]; single dose 0.2 to 6 mg/kg): safe and well tolerated with no treatment-related toxicities
